The values below come from US10660338B2, “Sporocidal disinfectant or sanitising composition” (priority 2014, dated 2020).

The structures appear in SMILES notation.

The nature of data set [1]: Dye duration (lifetime before bleaching). Type of data set: physicochemical. Here is the method: and wherein the colour indicator comprises a first non-mordant dye having a first colour and being bleachable after a first dye lifetime of 0.5 to 10 minutes in a test solution at 20° C. to 40° C. and pH8.0 to 8.5 containing 0.05 wt % to 0.15 wt % of the dye and 45 wt % to 55 wt % of sodium percarbonate;
a second non-mordant dye having a second colour different from the first colour and bleachable after a second dye lifetime of not less than 24 hours in the test solution; and
an optional third non-mordant dye having a third colour different from the first and second colours and bleachable after a third dye lifetime of not less than 36 hours in the test solution.

The subject of data set [2] is spores. Conditions: background statement; cited from earlier work.
For data set [3], the system named is spores. As to the kind of experiment: Sporocidal action of peracetic acid (general statements). It counts as cell-based.

As for `O=S(=O)(O)c1cc(S(=O)(=O)O)c2c(/N=N\c3ccc(S(=O)(=O)O)c4ccccc34)c(O)ccc2c1` [Acid Red 18], the DURATION in data set [1] was 30 min. The same measure, in the same setting: next, `Cc1ccc(Nc2ccc(O)c3c2C(=O)c2ccccc2C3=O)c(S(=O)(=O)[O-])c1.[Na+]` [Acid Violet 43]: 5 min. Turning to `CC(=O)OO` [Peracetic acid], the “Concentration at which sporocidal” value in data set [2] is recorded as 4000 ppm. Moreover, the “Concentration sufficient to provide sporicidal action” value in data set [3] is recorded as “approximately 1000 ppm”.
